Measurements: patent US20080280810A1, “PEPTIDES HAVING AFFINITY FOR BODY SURFACES” (priority 2006, published 2008)

How the values were obtained:
[1] = Co-application of multi-block peptide with semi-permanent dye (Arianor Ebony), color retention; parameters: species or system human; key: ΔE of peptide sample minus peptide-free control; larger = better retention; conditions: difference in Delta E between peptide sample and peptide free control after 3 embrocation cycles (about 12 manual shampoos); pH 8.5-9.0; >2 benefit, >4 substantial benefit
Experimental: A 0.5% aqueous solution of Arianor Ebony (Sensient Technologies Corp, Milwaukee, Wis.) containing 3% benzyl alcohol and 0.05% diazolidinyl urea (biocide) was prepared. Dye insolubles were removed by filtration and the pH of the dye solution was adjusted to 8.50-9.0, using ethanolamine.
Approximately 1 mL of the dye solution was added to selected wells of a 24-well plate (Thomson Instrument Co., Oceanside, Calif.; part # 931565). A multi-block peptide (see Table 12) was dissolved in a solution consisting of 3 wt % benzyl alcohol and 95 wt % water to yield a peptide concentration of 2 wt % or approximately 20 mg/mL. The pH was adjusted to 8.5-9.0 using ethanolamine. The peptide solution was then pipetted into test wells containing dye solution in the amount of 1 mL or 0.2 mL respectively. The total volume in each test well was then adjusted to 2 mL where necessary using 3% aqueous benzyl alcohol (pH adjusted to 8.5-9.0 with ethanolamine). Peptide free controls consisted of 1 mL of dye solution diluted to 2 mL with the pH adjusted aqueous benzyl alcohol solution.
Baseline […] readings were made on one inch long tresses (see below) using an X-RITE® SP78™ Sphere Spectrophotometer (X-Rite, Inc., Grandville, Mich.), by placing the hair tress into the photosensor and calculating L*, a* and b* parameters representing the photometer response. All measurements were the average of three individual determinations.
The tresses (potted on one end with resin) of natural white, 85% gray or regular bleached hair (International Hair Importers and Products, Bellerose, N.Y.) were immersed in the peptide/dye solution and the entire well plate was agitated on a VORTEX-GENIE® 2 Mixer (Scientific Industries, Bohemia, N.Y.) at a speed setting of 1 for 30 minutes. The tresses were removed from the wells, rinsed for 30 seconds under flowing deionized water and then air dried.
The following complement of beads was then added to each well containing a hair tress: (8 beads in all; 4 Novagen Coli Rollers Plating Beads—sterilized (EMD Biosciences, San Diego, Calif.; Catalog No. 71013), 2 BioSpec 6.35 mm glass beads (BioSpec Products, Bartlesville, Okla.; Catalog No. 11079635), and 2 BioSpec 3.2 mm Stainless Steel Bead (Catalog No. 11079132ss).
Then 2.5 mL of aqueous 50% Pantene Pro V® shampoo (Proctor & Gamble Co., Cincinnati, Ohio) was pipetted into each well. The plate was placed on a VWR® VX-2500 Multi-tube Vortexer (VWR, West Chester, Pa.) for 5 minutes to simulate shampooing with embrocation. The hair tresses were then rinsed under flowing deionized water and air dried. This cycle was repeated two more times except that the length of time was 10 minutes for both subsequent embrocation cycles. (This treatment was previously determined to simulate approximately 12 manual shampoo cycles.) At the conclusion of the third embrocation cycle L*, a* and b* values were measured and Delta E values (ΔE) were calculated using equation 1 below:
where L*=the lightness variable and a* and b* are the chromaticity coordinates of CIELAB colorspace as defined by the International Commission of Illumination (CIE) (Minolta, Precise Color Communication—Color Control From Feeling to Instrumentation, Minolta Camera Co., 1996).
The Delta E value (ΔE) indicates color retention relative to the non-dyed hair and larger Delta E values indicate better performance. Values listed in the table represent the difference in Delta E values between the peptide-containing sample and the peptide free control. This difference is indicative of color retention after shampoo or water rinse treatments and positive values indicate better performance relative to the peptide free controls (Table 12).

[2] = Color retention after shampoo treatment, peptide as sealant with Acid Red 33 dye; parameters: species or system human; conditions: 0.50 wt % Acid Red 33, peptide 0.25 wt %, 30 min contact, after one shampoo treatment; vs uncolored hair; larger = better color retention; dye alone 19.63
Experimental: The peptides used in this Example were prepared as described in Examples 1-3. The color retention was quantified using a spectrophotometric measurement technique.
A peptide given as SEQ ID NO:41, SEQ ID NO:42, or SEQ ID NO:43 (38 mg), produced via fermentation as described in Examples 1-3, was added to 15 g of an aqueous 0.50 wt % solution of Acid Red 33 (Abbey Color, Philadelphia, Pa.) and the solution was allowed to stir for 1 h. A natural white hair tress (1 cm wide, potted, International Hair Importers & Products Inc., Bellerose, N.Y.) was inserted into a 15 mm×125 mm test tube and 13 mL of the peptide/dye mixture was injected into the test tube. The hair tress was immersed in contact with the colorant solution for 30 min and the colorant solution was agitated using a magnetic stirrer. The tress was removed, allowed to drip dry, and then air dried for 30 min.
The hair tress was then subjected to a water rinse using copious amounts of deionized water, followed by a shampoo treatment with embrocation for 30 seconds. The shampoo treatment involved the application of Pantene Pro-V Sheer Volume shampoo (Proctor & Gamble, Cincinnati, Ohio) to the hair as follows. A quarter-sized drop of the shampoo was distributed evenly over the hair tress and then was massaged aggressively into the hair for 30 sec, after which the hair tress was rinsed with water to remove the shampoo. The hair tress was then dried at room temperature. The entire procedure described above was repeated without the addition of the hair-binding peptide to serve as a control.
The color intensity after the shampoo treatment was measured using an X-Rite® SP78™ Sphere Spectrophotometer (X-Rite, Inc., Grandville, Mich.), by placing the colored hair sample into the photosensor and calculating L*, a* and b* parameters representing the photometer response. An initial baseline L* value was measured for the uncolored hair and all measurements were the average of three individual determinations. Delta E values were calculated using equation 1 below: […]

| Substance | ΔE Retention Ebony Dye Regular Bleached Hair [1] | ΔE Retention Ebony dye with Natural White Hair [1] | Delta E [2] |
| --- | --- | --- | --- |
| P-EQISGSLVAAPW-KRKRK-D (PEQISGSLVAAPWKRKRKD; Peptide having affinity for hair) [HC 74] | 0.1 | 8.5 | 28.68 |
| P-TPPELLHGAPRS-KRKRK-D (PTPPELLHGAPRSKRKRKD; Peptide having affinity for hair) [HC 71] | 1.9 | 5.2 | 25.80 |
